Consider 19 compounds from US20250154686A1, “COMPOUND LIBRARY” (CHUGAI SEIYAKU KABUSHIKI KAISHA, priority 2021, published 2025).

The target in this experiment is T1, Bcl-2 protein (Recombinant Human Bcl-2 Protein) (Homo sapiens, UniProt P10415).
T1 construct: purchased Novus Biologicals NBP2-34889
Nature of the experiment: AS-MS evaluation of binding of the Example 4 mixture library (1200 compounds/well) to Bcl-2, ASMS ratio (%). The conditions noted are these: mixture library, value belongs to the MS peak assigned to the compound; for ASMS ratio (%) n = 1: replicate n = 1; for ASMS ratio (%) n = 2: replicate n = 2. Here is the method: DMSO solutions (prepared into approximately 0.58 mM based on calculation from the average molecular weight of each mixture) of 12 types of mixtures that could each contain 100 compounds, i.e., mixAI-B4J-01, mixAI-B1M-01, mixAI-B1K-01, mixAI-BIO-01, mixAI-B1A-01, mixAI-B3A-01, mixAI-B21-01, mixAI-B2L-01, mixAI-B2N-01, mixAI-B2A-01, mixAI-B2Q-01, and mixAI-B2R-01, shown in Table AI-03-B4J-01, Table AI-03-B1M-01, Table AI-03-B1K-01, Table AI-03-B10-01, Table AI-03-B1A-01, Table AI-03-B3A-01, Table AI-03-B21-01, Table AI-03-B2L-01, Table AI-03-B2N-01, Table AI-03-B2A-01, Table AI-03-B2Q-01, and Table AI-03-B2R-01 described in Example 4, were respectively dispensed to a total of 12 wells of MICROPLATE, 96-well, PP, V-BOTTOM (Greiner Bio-One International GmbH, 651201). 70 nL each from the 12 wells was collected into any one well using LABCYTE ECHO® 555 acoustic dispensing system (Beckman Coulter, Inc.) to prepare a sample solution in a mixed state of 1200 compounds (the presence of 1152 compounds was already identified when the mixtures were prepared in Example 4). Further, Bcl-2 protein (Novus Biologicals, NBP2-34889, Recombinant Human Bcl-2 Protein, Lot E60145051) (19.2 μL) prepared at 20.9 μM in advance using a Tris-HCl buffer (25 mM Tris-HCl, pH 7.4, 150 mM NaCl, 0.025% Tween-20, and 1 mM DTT) was added to the well containing the dispensed 1200 compounds (the presence of 1152 compounds was already identified when the mixtures were prepared in Example 4) (final compound concentration: 20 nM, final Bcl-2 concentration: 20 μM), and the plate was incubated at 23° C. for 1 hour in the dark. Subsequently, 200 μL of an assay buffer (25 mM Tris-HCl, pH 7.4, 150 mM NaCl, 0.025% Tween-20, and 1 mM DTT) was centrifuged three times at 2000×G at 4° C. for 2 minutes using 96-well MacroSpin column, P-2 Material (Harvard Bioscience, Inc., 74-5655) that had been allowed to swell to condition the 96-well MacroSpin column. Subsequently, 20 μL of the sample thus incubated was added to the 96-well MacroSpin column, P-2 Material after the completion of conditioning, and SEC treatment was performed by centrifugation at 2000×G for 2 minutes. 32 μL of a 1:1 mixed solution of acetonitrile and methanol (LC/MS grade, FUJIFILM Wako Pure Chemical Corp.) was added to a flow-through liquid from SEC, and the mixture was centrifuged at 1800×G at 4° C. for 5 minutes. The supernatant was used as analysis sample ASMS (A). By a similar operation, a sample prepared at 1200 compounds/well and supplemented with only a Tris-HCl buffer containing no Bcl-2 protein was incubated under the same conditions as above, and the same organic solvent as above was added thereto without 96-well MacroSpin column treatment. A supernatant obtained by a centrifugation operation was used as STD (B). Next, by a similar operation, a sample prepared at 1200 compounds/well and supplemented with only a Tris-HCl buffer containing no Bcl-2 protein was incubated under the same conditions as above and treated with 96-well MacroSpin column in the same manner as above, and the same organic solvent as above was added thereto. A supernatant obtained by a centrifugation operation was used as BK (C). These samples were measured by reverse-phase LC/MS.
Then, the samples A, B and C were analyzed for the 1200 compounds using TraceFinder 5.1 (Thermo Fisher Scientific Inc.) and CHANCE Software (in-house), and an ASMS ratio (%) was calculated according to the following expression.
Although m/z of the MS peaks was confirmed down to four decimal places, 0 at the decimal level may be omitted in the description in Table AJ-01. For example, “587.0000” is also referred to as “587”, “587.1000” is also referred to as “587.1”, “587.1200” is also referred to as “587.12”, and “587.1230” is also referred to as “587.123”.

T1 sequence (P10415 whole entry): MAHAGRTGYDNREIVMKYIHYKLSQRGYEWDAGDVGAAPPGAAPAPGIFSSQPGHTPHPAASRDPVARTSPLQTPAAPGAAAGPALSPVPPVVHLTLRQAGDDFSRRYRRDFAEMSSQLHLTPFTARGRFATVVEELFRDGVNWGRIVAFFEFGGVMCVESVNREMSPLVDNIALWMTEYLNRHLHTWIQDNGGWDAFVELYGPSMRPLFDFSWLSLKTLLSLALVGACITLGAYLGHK

With `CCOc1cccc(-c2cc(CN3CCN(c4ccc(C(=O)NS(=O)(=O)CC56CC7CC(CC(C7)C5)C6)nn4)CC3)cc(OC(F)(F)F)c2)c1` [Compound B2A089-01], the “ASMS ratio (%) n = 1” value is reported as 10.5% and the “ASMS ratio (%) n = 2” value is 0.5%.
As to `CCOc1cccc(-c2cc(C(=O)N3CCN(c4ccc(C(=O)NS(C)(=O)=O)cc4)CC3)cc(C(F)(F)F)c2)c1` [Compound B2I039-01, 4-[4-[3-(3-Ethoxyphenyl)-5-(trifluoromethyl)benzoyl]piperazin-1-yl]-N-methylsulfonylbenzamide], the “ASMS ratio (%) n = 1” value was found to be 0.0% and the “ASMS ratio (%) n = 2” value was 0.0%.
On to `CCOc1cncc(-c2cc(C(=O)N3CCN(c4ccc(C(=O)NS(C)(=O)=O)cc4)CC3)cc(C(F)(F)F)c2)c1` [Compound B2I040-01, 4-[4-[3-(5-Ethoxypyridin-3-yl)-5-(trifluoromethyl)benzoyl]piperazin-1-yl]-N-methylsulfonylbenzamide], for which the “ASMS ratio (%) n = 1” value is given as 0.0% and the “ASMS ratio (%) n = 2” value was −2.7%.
For `CCOc1cccc(C#Cc2cc(C(=O)N3CCN(c4ccc(C(=O)NS(C)(=O)=O)cc4)CC3)cc(C(F)(F)F)c2)c1` [Compound B2I041-01, 4-[4-[3-[2-(3-Ethoxyphenyl)ethynyl]-5-(trifluoromethyl)benzoyl]piperazin-1-yl]-N-methylsulfonylbenzamide] the same measures were 0.0% and 0.0%.
`CCOc1cncc(C#Cc2cc(C(=O)N3CCN(c4ccc(C(=O)NS(C)(=O)=O)cc4)CC3)cc(C(F)(F)F)c2)c1` [Compound B2I042-01, 4-[4-[3-[2-(5-Ethoxypyridin-3-yl)ethynyl]-5-(trifluoromethyl)benzoyl]piperazin-1-yl]-N-methylsulfonylbenzamide]: the “ASMS ratio (%) n = 1” value came out at 0.0% and the “ASMS ratio (%) n = 2” value is recorded as 0.0%.
Regarding `CCOc1cccc(-c2cnn(-c3cc(C(=O)N4CCN(c5ccc(C(=O)NS(C)(=O)=O)cc5)CC4)cc(C(F)(F)F)c3)c2)c1` [Compound B2I043-01, 4-[4-[3-[4-(3-Ethoxyphenyl)pyrazol-1-yl]-5-(trifluoromethyl)benzoyl]piperazin-1-yl]-N-methylsulfonylbenzamide], the “ASMS ratio (%) n = 1” value amounted to 0.0% and the “ASMS ratio (%) n = 2” value came out at 0.0%.
With `CCOc1cncc(-c2cnn(-c3cc(C(=O)N4CCN(c5ccc(C(=O)NS(C)(=O)=O)cc5)CC4)cc(C(F)(F)F)c3)c2)c1` [Compound B2I044-01, 4-[4-[3-[4-(5-Ethoxypyridin-3-yl)pyrazol-1-yl]-5-(trifluoromethyl)benzoyl]piperazin-1-yl]-N-methylsulfonylbenzamide], the “ASMS ratio (%) n = 1” value stood at 0.0% and the “ASMS ratio (%) n = 2” value was 0.0%.
In the case of `CCOc1cccc(-c2ccccc2CN2CCN(c3ccc(C(=O)NS(C)(=O)=O)cc3)CC2)c1` [Compound B2I045-01, 4-[4-[[2-(3-Ethoxyphenyl)phenyl]methyl]piperazin-1-yl]-N-methylsulfonylbenzamide], the “ASMS ratio (%) n = 1” value was −0.3% and the “ASMS ratio (%) n = 2” value was 0.2%.
For `CCOc1cncc(-c2ccccc2CN2CCN(c3ccc(C(=O)NS(C)(=O)=O)cc3)CC2)c1` [Compound B2I046-01, 4-[4-[[2-(5-Ethoxypyridin-3-yl)phenyl]methyl]piperazin-1-yl]-N-methylsulfonylbenzamide] the same measures were −0.6% and 1.5%.
The like results for `CCOc1cccc(-c2ccc(CN3CCN(c4ccc(C(=O)NS(C)(=O)=O)cc4)CC3)cc2C)c1` [Compound B2I047-01, 4-[4-[[4-(3-Ethoxyphenyl)-3-methylphenyl]methyl]piperazin-1-yl]-N-methylsulfonylbenzamide] were, in that order, 0.8% and 1.4%.
For `CCOc1cncc(-c2ccc(CN3CCN(c4ccc(C(=O)NS(C)(=O)=O)cc4)CC3)cc2C)c1` [Compound B2I048-01, 4-[4-[[4-(5-Ethoxypyridin-3-yl)-3-methylphenyl]methyl]piperazin-1-yl]-N-methylsulfonylbenzamide] the same measures were 0.0% and 0.0%.
Consider `CCOc1cccc(-c2ccc(CN3CCN(c4ccc(C(=O)NS(C)(=O)=O)cc4)CC3)c(CC)c2)c1` [Compound B2I049-01, 4-[4-[[4-(3-Ethoxyphenyl)-2-ethylphenyl]methyl]piperazin-1-yl]-N-methylsulfonylbenzamide], for which the “ASMS ratio (%) n = 1” value is given as 0.0% and the “ASMS ratio (%) n = 2” value worked out at 0.0%.
In the case of `CCOc1cncc(-c2ccc(CN3CCN(c4ccc(C(=O)NS(C)(=O)=O)cc4)CC3)c(CC)c2)c1` [Compound B2I050-01, 4-[4-[[4-(5-Ethoxypyridin-3-yl)-2-ethylphenyl]methyl]piperazin-1-yl]-N-methylsulfonylbenzamide], the “ASMS ratio (%) n = 1” value was found to be 0.0% and the “ASMS ratio (%) n = 2” value is on record as −1.5%.
Take `CCOc1cccc(-c2ccc(CN3CCN(c4ccc(C(=O)NS(C)(=O)=O)cc4)CC3)cc2F)c1` [Compound B2I051-01, 4-[4-[[4-(3-Ethoxyphenyl)-3-fluorophenyl]methyl]piperazin-1-yl]-N-methylsulfonylbenzamide]: the “ASMS ratio (%) n = 1” value turned out to be 0.0% and the “ASMS ratio (%) n = 2” value is given as 0.0%.
In the case of `CCOc1cncc(-c2ccc(CN3CCN(c4ccc(C(=O)NS(C)(=O)=O)cc4)CC3)cc2F)c1` [Compound B2I052-01, 4-[4-[[4-(5-Ethoxypyridin-3-yl)-3-fluorophenyl]methyl]piperazin-1-yl]-N-methylsulfonylbenzamide], the “ASMS ratio (%) n = 1” value worked out at 0.0% and the “ASMS ratio (%) n = 2” value amounted to 0.0%.
With `CCOc1cccc(-c2ccc(CN3CCN(c4ccc(C(=O)NS(C)(=O)=O)cc4)CC3)c(OC)c2)c1` [Compound B2I053-01, 4-[4-[[4-(3-Ethoxyphenyl)-2-methoxyphenyl]methyl]piperazin-1-yl]-N-methylsulfonylbenzamide], the “ASMS ratio (%) n = 1” value was 0.0% and the “ASMS ratio (%) n = 2” value stood at 0.0%.
On to `CCOc1cncc(-c2ccc(CN3CCN(c4ccc(C(=O)NS(C)(=O)=O)cc4)CC3)c(OC)c2)c1` [Compound B2I054-01, 4-[4-[[4-(5-Ethoxypyridin-3-yl)-2-methoxyphenyl]methyl]piperazin-1-yl]-N-methylsulfonylbenzamide], for which the “ASMS ratio (%) n = 1” value came out at 0.0% and the “ASMS ratio (%) n = 2” value is reported as 0.0%.
Take `CCOc1cccc(-c2cc(CN3CCN(c4ccc(C(=O)NS(C)(=O)=O)cc4)CC3)cc(OCC)c2)c1` [Compound B2I055-01, 4-[4-[[3-Ethoxy-5-(3-ethoxyphenyl)phenyl]methyl]piperazin-1-yl]-N-methylsulfonylbenzamide]: the “ASMS ratio (%) n = 1” value is given as 0.0% and the “ASMS ratio (%) n = 2” value was 0.0%.
`CCOc1cncc(-c2cc(CN3CCN(c4ccc(C(=O)NS(C)(=O)=O)cc4)CC3)cc(OCC)c2)c1` [Compound B2I056-01, 4-[4-[[3-Ethoxy-5-(5-ethoxypyridin-3-yl)phenyl]methyl]piperazin-1-yl]-N-methylsulfonylbenzamide]: the “ASMS ratio (%) n = 1” value amounted to 0.0% and the “ASMS ratio (%) n = 2” value stood at 0.0%.
